According to patent US20230312605A1, “PYRROLO[2,1-F][1,2,4]TRIAZINES AND PREPARATION AND USES THEREOF” (BioSplice Therapeutics, Inc., priority 2021, published 2023):

These compounds were tested against recombinant DYRK1A kinase (Homo sapiens (Human), UniProt Q13627) (assay: DYRK1A kinase assay (Ser/Thr 18 peptide Z-lyte FRET assay)). Details: recombinant DYRK1A 0.25 µg/mL, ATP 15 µM, Ser/Thr peptide 18 4 µM, one hour at room temperature; table head prints EC50, method says IC50.
Format: biochemical
In short: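 Z-lyte FRET format: 1 h room-temperature reaction of 15 µM ATP, 4 µM Ser/Thr 18 peptide and 0.25 µg/mL recombinant human DYRK1A, in duplicate over 11 compound concentrations up to 10 µM. IC50 was derived by non-linear regression of percent phosphorylation calculated from coumarin/fluorescein emission ratios.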
Compound `CC1(CNc2ncc3c(-c4cnc5nccn5c4)ccn3n2)CC1` [Compound 225, 5-(Imidazo[1,2-a]pyrimidin-6-yl)-N-((1-methylcyclopropyl)methyl)pyrrolo [2,1-f][1,2,4]triazin-2-amine] has an EC50 of 11 nM.
`FC(F)(F)O[C@H]1CC[C@@H](Nc2ncc3c(-c4cnc5nccn5c4)ccn3n2)CC1` [Compound 1780, 5-(Imidazo[1,2-a]pyrimidin-6-yl)-N-(cis-4-(trifluoromethoxy)cyclohexyl) pyrrolo[2,1-f][1,2,4]triazin-2-amine] gave an EC50 of 7 nM.
For `Cc1nc2ccc(-c3ccn4nc(N[C@@H]5CCN(C)C[C@H]5F)ncc34)nc2n1CC(F)F` [Compound 1854], the EC50 was 8 nM.
`C[C@]1(O)CC[C@@H](Nc2ncc3c(-c4ccc5ncccc5c4)ccn3n2)CC1` [Compound 1323, (1s,4s)-1-Methyl-4-((5-(quinolin-6-yl)pyrrolo[2,1-f][1,2,4]triazin-2-yl)amino)cyclohexan-1-ol] was tested, and the EC50 was 7 nM.
`Cc1nc2ccc(-c3ccn4nc(NC5CCC(F)(F)CC5)ncc34)nc2n1CC(C)(C)O` [Compound 1870, 1-(5-(2-((4,4-Difluorocyclohexyl)amino)pyrrolo[2,1-f][1,2,4]triazin-5-yl)-2-methyl-3H-imidazo[4,5-b]pyridin-3-yl)-2-methylpropan-2-ol] gave an EC50 of 78 nM.
In the case of `Cc1nc2ccc(-c3ccn4nc(NC5CCNCC5)ncc34)nc2n1CC(F)F` [Compound 1916, 5-(3-(2,2-difluoroethyl)-2-methyl-3H-imidazo[4,5-b]pyridin-5-yl)-N-(piperidin-4-yl)pyrrolo[2,1-f][1,2,4]triazin-2-amine], the EC50 is reported as 5 nM.
Work on `C[C@]1(O)CC[C@@H](Nc2ncc3c(-c4cnc5nccn5c4)ccn3n2)CC1` [Compound 258, (1s,4s)-4-((5-(Imidazo [1,2-a]pyrimidin-6-yl)pyrrolo[2,1-f] [1,2,4]triazin-2-yl)amino)-1-methylcyclohexan-1-ol] yielded an EC50 of 10 nM.
Compound `Cc1nc2ccc(-c3ccn4nc(NC5CCN(C)CC5)ncc34)nc2n1CC(F)F` [Compound 1131, 5-(3-(2,2-Difluoroethyl)-2-methyl-3H-imidazo[4,5-b]pyridin-5-yl)-N-(1-methylpiperidin-4-yl)pyrrolo[2,1-f][1,2,4]triazin-2-amine] has an EC50 of 16 nM.
`Cc1nc2ccc(-c3ccn4nc(N[C@H]5CC[C@@H](CN6CC(F)C6)CC5)ncc34)nc2n1CC(F)F` [Compound 1894, 5-(3-(2,2-Difluoroethyl)-2-methyl-3H-imidazo[4,5-b]pyridin-5-yl)-N-(cis-4-((3-fluoroazetidin-1-yl)methyl)cyclohexyl)pyrrolo [2,1-f] [1,2,4]triazin-2-amine] showed an EC50 of 11 nM.
For `Cc1nc2ccc(-c3ccn4nc(N[C@H]5CC[C@@H](C(=O)N6CCC6)CC5)ncc34)nc2n1CC(F)F` [Compound 1896, azetidin-1-yl(cis-4-((5-(3-(2,2-difluoroethyl)-2-methyl-3H-imidazo[4,5-b]pyridin-5-yl)pyrrolo[2,1-f][1,2,4]triazin-2-yl)amino)cyclohexyl)methanone], the EC50 was 3 nM.
Compound `Cc1nc2ncc(-c3ccn4nc(N[C@H]5CC[C@@H](O)CC5)ncc34)cc2n1CC(F)F` [Compound 683, cis-4-((5-(1-(2,2-Difluoroethyl)-2-methyl-1H-imidazo[4,5-b]pyridin-6-yl)pyrrolo[2,1-f][1,2,4]triazin-2-yl)amino)cyclohexan-1-ol] has an EC50 of 6 nM.
With `CC(C)(F)CNc1ncc2c(-c3ccc4ncc(C(=O)N5CCCC5)n4c3)ccn2n1` [Compound 74, (6-(2-((2-Fluoro-2-methylpropyl)amino)pyrrolo[2,1-f][1,2,4]triazin-5-yl)imidazo[1,2-a]pyridin-3-yl)(pyrrolidin-1-yl)methanone] the EC50 was 5100 nM.
Work on `c1cn2cc(-c3ccn4nc(NCC5CCCO5)ncc34)ccc2n1` (stereo not shown) [Compound 21, 5-(Imidazo[1,2-a]pyridin-6-yl)-N-((tetrahydrofuran-2-yl)methyl)pyrrolo[2,1-f][1,2,4]triazin-2-amine] yielded an EC50 of 61 nM.
`Cc1nc2ncc(-c3ccn4nc(NC5CCC(F)(F)CC5)ncc34)cc2n1CC(F)F` [Compound 682, N-(4,4-Difluorocyclohexyl)-5-(1-(2,2-difluoroethyl)-2-methyl-1H-imidazo[4,5-b]pyridin-6-yl)pyrrolo[2,1-f] [1,2,4]triazin-2-amine] was tested, and the EC50 was 4 nM.
With `CN1CCC(Nc2ncc3c(-c4cnc5nccn5c4)ccn3n2)CC1` [Compound 279, 5-(Imidazo[1,2-a]pyrimidin-6-yl)-N-(1-methylpiperidin-4-yl)pyrrolo[2,1-f][1,2,4]triazin-2-amine] the EC50 was 49 nM.
`Cc1nc2ccc(-c3ccn4nc(N[C@H]5CC[C@](C)(O)CC5)ncc34)nc2n1CC(F)F` [Compound 1840, trans-4-((5-(3-(2,2-Difluoroethyl)-2-methyl-3H-imidazo[4,5-b]pyridin-5-yl)pyrrolo[2,1-f][1,2,4]triazin-2-yl)amino)-1-methylcyclohexan-1-ol] gave an EC50 of 3 nM.
`O[C@H]1CC[C@@H](Nc2ncc3c(-c4ccc5ncccc5c4)ccn3n2)CC1` [Compound 1322, cis-4-((5-(Quinolin-6-yl)pyrrolo[2,1-f][1,2,4]triazin-2-yl)amino)cyclohexan-1-ol] was tested, and the EC50 was 393 nM.
Compound `Cc1nc2ncc(-c3ccn4nc(NC5CCN(CCF)CC5)ncc34)cc2n1CC(F)F` [Compound 1881, 5-(1-(2,2-Difluoroethyl)-2-methyl-1H-imidazo[4,5-b]pyridin-6-yl)-N-(1-(2-fluoroethyl)piperidin-4-yl)pyrrolo[2,1-f][1,2,4]triazin-2-amine] has an EC50 of 2 nM.
Work on `Cc1nc2ccc(-c3ccn4nc(NC5CCC6(CC5)CN(C)C6)ncc34)nc2n1CC(F)F` [Compound 1846, 5-(3-(2,2-Difluoroethyl)-2-methyl-3H-imidazo[4,5-b]pyridin-5-yl)-N-(2-methyl-2-azaspiro[3.5]nonan-7-yl)pyrrolo[2,1-f][1,2,4]triazin-2-amine] yielded an EC50 of 4 nM.
`C[C@]1(O)CC[C@H](Nc2ncc3c(-c4ccc5nnn(CC(F)F)c5c4)ccn3n2)CC1` [Compound 1890, trans-4-((5-(1-(2,2-Difluoroethyl)-1H-benzo[d][1,2,3]triazol-6-yl)pyrrolo [2,1-f][1,2,4]triazin-2-yl)amino)-1-methylcyclohexan-1-o1] was tested, and the EC50 was 14 nM.
`c1cn2cc(-c3ccn4nc(NC5CCOCC5)ncc34)ccc2n1` [Compound 67, 5-(Imidazo[1,2-a]pyridin-6-yl)-N-(tetrahydro-2H-pyran-4-yl)pyrrolo[2,1-f] [1,2,4]triazin-2-amine] gave an EC50 of 40 nM.
Compound `CO[C@H]1C[C@@H](Nc2ncc3c(-c4cnc5nccn5c4)ccn3n2)C1` [Compound 239, 5-(Imidazo[1,2-a]pyrimidin-6-yl)-N-(cis-3-methoxycyclobutyl)pyrrolo[2,1-f] [1,2,4]triazin-2-amine] has an EC50 of 6 nM.
Compound `CC(=O)N1CCC(Nc2ncc3c(-c4ccc5nc(C)n(CC(F)F)c5n4)ccn3n2)CC1` [Compound 1857, 1-(4-((5-(3-(2,2-Difluoroethyl)-2-methyl-3H-imidazo[4,5-b]pyridin-5-yl)pyrrolo[2,1-f][1,2,4]triazin-2-yl)amino)piperidin-1-yl)ethan-1-one] has an EC50 of 3 nM.
Compound `CC(C)CN1CC2(CC(Nc3ncc4c(-c5ccc6ncccc6c5)ccn4n3)C2)C1` [Compound 1771, N-(2-isobutyl-2-azaspiro[3.3]heptan-6-yl)-5-(quinolin-6-yl)pyrrolo[2,1-f] [1,2,4]triazin-2-amine] has an EC50 of 5 nM.
With `COCCO[C@H]1CC[C@H](Nc2ncc3c(-c4cnc5ncccc5c4)ccn3n2)CC1` [Compound 1544, N-(trans-4-(2-Methoxyethoxy)cyclohexyl)-5-(1,8-naphthyridin-3-yl)pyrrolo [2,1-f][1,2,4]triazin-2-amine] the EC50 was 5 nM.
In the case of `C[C@]1(O)C[C@@H](Nc2ncc3c(-c4cnc5ncccc5c4)ccn3n2)C1` [Compound 1825, cis-3-((5-(1,8-Naphthyridin-3-yl)pyrrolo[2,1-f][1,2,4]triazin-2-yl)amino)-1-methylcyclobutan-1-ol], the EC50 is reported as 5 nM.
In the case of `COCCO[C@H]1CC[C@H](Nc2ncc3c(-c4cnc5nc(C)n(CC(F)F)c5c4)ccn3n2)CC1` [Compound 692, 5-(1-(2,2-Difluoroethyl)-2-methyl-1H-imidazo[4,5-b]pyridin-6-yl)-N-(trans-4-(2-methoxyethoxy)cyclohexyl)pyrrolo[2,1-f][1,2,4]triazin-2-amine], the EC50 is reported as 28 nM.
Work on `CN(C)[C@H]1CC[C@@H](Nc2ncc3c(-c4ccc5ncccc5c4)ccn3n2)CC1` [Compound 1336, cis-N^1,N^1-Dimethyl-N^4-(5-(quinolin-6-yl)pyrrolo[2,1-f][1,2,4]triazin-2-yl) cyclohexane-1,4-diamine] yielded an EC50 of 25 nM.
In the case of `[2H]C([2H])([2H])O[C@H]1CC[C@@H](Nc2ncc3c(-c4cnc5nc(C)n(CC(F)F)c5c4)ccn3n2)CC1` [Compound 1876], the EC50 is reported as 2 nM.
In the case of `c1cnc2ncc(-c3ccn4nc(N[C@H]5CC[C@@H](N6CCOCC6)CC5)ncc34)cc2c1` [Compound 1551, N-(cis-4-Morpholinocyclohcxy1)-5-(1,8-naphthyridin-3-yl)pyrrolo[2,1-f] [1,2,4]triazin-2-amine], the EC50 is reported as 38 nM.
`CC(C)(F)CNc1ncc2c(-c3cnc4ncc(Cl)n4c3)ccn2n1` [Compound 287, 5-(3-Chloroimidazo[1,2-a]pyrimidin-6-yl)-N-(2-fluoro-2-methylpropyl) pyrrolo[2,1-f] [1,2,4]triazin-2-amine] showed an EC50 of 170 nM.
In the case of `CC(C)Nc1ncc2c(-c3cnc4nccn4c3)ccn2n1` [Compound 214, 5-(Imidazo[1,2-a]pyrimidin-6-yl)-N-isopropylpyrrolo[2,1-f][1,2,4]triazin-2-amine], the EC50 is reported as 33 nM.
`Cc1nc2ccc(-c3ccn4nc(N[C@@H]5CN(C)C[C@H]5F)ncc34)nc2n1CC(F)F` [Compound 1902] gave an EC50 of 6 nM.
`COCCO[C@H]1C[C@@H](Nc2ncc3c(-c4cnc5ncccc5c4)ccn3n2)C1` [Compound 1522, N-(cis-3-(2-Methoxyethoxy)cyclobutyl)-5-(1,8-naphthyridin-3-yl)pyrrolo [2,1-f][1,2,4]triazin-2-amine] showed an EC50 of 3 nM.
